Experimental data: patent US20240336602A1 (Katholieke Universiteit Leuven, priority 2020, published 2024)

Target: T1, mouse TRPM3a2 (mTRPM3) ion channel (Mus musculus, UniProt J9SQF3)
T1 construct: expressed in transfected cells; host or cells: flip-in HEK293
Experiment: TRPM3 ion channel driven Ca2+ uptake, Fluo-4 AM assay (PS-stimulated, overexpressing flip-in HEK293 cells)
Format: cell-based
Summary of the method: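 Flip-in HEK293 cells overexpressing mTRPM3α2, loaded with Fluo-4 AM, were added to wells with compound plus 50 μM pregnenolone sulfate in Ca2+-containing Krebs buffer and read immediately (ex 485/em 535 nm). Percent inhibition was scaled between PS-plus-vehicle and positive-control-inhibitor signals.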

[1] = PS (50 μM) stimulated, cpd 001-199
[2] = PS (50 μM) stimulated Ca2+ influx, HEK293, cpds 300-399
[3] = PS (50 μM) stimulated, cpds. 400-499

T1 sequence (J9SQF3 1-1709 isoform J9SQF3-12): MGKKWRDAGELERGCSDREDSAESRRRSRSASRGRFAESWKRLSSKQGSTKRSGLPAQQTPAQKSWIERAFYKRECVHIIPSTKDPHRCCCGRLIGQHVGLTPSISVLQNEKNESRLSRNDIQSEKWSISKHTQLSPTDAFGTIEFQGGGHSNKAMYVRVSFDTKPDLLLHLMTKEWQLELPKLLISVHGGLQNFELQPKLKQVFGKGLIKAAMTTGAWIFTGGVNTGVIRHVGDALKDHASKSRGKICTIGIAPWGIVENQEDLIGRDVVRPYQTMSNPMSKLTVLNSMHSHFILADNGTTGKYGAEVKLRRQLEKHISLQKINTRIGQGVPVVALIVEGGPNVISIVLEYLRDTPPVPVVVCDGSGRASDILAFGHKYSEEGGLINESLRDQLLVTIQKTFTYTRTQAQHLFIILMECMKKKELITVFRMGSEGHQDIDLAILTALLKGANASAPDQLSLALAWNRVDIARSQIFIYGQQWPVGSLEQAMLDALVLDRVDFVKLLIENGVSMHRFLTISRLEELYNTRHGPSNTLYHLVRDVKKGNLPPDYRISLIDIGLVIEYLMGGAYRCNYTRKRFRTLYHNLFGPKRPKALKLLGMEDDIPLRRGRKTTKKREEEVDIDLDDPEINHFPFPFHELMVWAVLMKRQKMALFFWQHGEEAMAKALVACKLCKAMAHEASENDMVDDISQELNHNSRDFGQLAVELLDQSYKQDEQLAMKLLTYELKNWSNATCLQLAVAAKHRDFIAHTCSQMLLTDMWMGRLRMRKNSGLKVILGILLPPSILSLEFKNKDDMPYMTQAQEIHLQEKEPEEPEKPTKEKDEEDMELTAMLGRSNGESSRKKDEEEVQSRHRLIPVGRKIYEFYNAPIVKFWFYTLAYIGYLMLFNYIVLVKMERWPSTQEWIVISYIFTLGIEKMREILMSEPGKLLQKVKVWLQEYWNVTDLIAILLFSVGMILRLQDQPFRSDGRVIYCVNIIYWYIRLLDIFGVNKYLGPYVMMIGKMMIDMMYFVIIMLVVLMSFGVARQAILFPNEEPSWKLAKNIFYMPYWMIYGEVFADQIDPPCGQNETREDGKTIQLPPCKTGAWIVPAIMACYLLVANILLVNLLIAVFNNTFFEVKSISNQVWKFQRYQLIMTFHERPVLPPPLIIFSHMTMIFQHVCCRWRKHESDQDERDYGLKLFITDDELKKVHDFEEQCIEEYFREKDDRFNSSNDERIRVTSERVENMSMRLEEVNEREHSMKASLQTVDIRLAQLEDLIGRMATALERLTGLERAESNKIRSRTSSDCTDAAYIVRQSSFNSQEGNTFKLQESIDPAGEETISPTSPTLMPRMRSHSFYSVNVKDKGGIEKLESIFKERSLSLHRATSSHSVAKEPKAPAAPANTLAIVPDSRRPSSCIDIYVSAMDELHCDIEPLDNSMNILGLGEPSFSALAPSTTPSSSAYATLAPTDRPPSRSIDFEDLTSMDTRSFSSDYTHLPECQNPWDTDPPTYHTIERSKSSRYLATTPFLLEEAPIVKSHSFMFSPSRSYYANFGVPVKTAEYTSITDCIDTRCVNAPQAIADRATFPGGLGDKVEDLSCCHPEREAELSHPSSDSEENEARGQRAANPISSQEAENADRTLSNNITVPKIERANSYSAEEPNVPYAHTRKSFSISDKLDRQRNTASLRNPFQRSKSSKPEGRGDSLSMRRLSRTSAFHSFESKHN

Row | IC50 [1] | IC50 [2] | SMILES | also measured
1 | 1000 to 20000 nM | – | Cc1ncsc1COc1ccc2oc(C)c(C(=O)NC3CCN(C(=O)OC(C)(C)C)CC3(F)F)c2c1 (stereo not drawn) [cpd 090, tert-butyl 3,3-difluoro-4-(2-methyl-5-((4-methylthiazol-5-yl)methoxy)benzofuran-3-carbox-amido)piperidine-1-carboxylate] | –
2 | 1000 to 20000 nM | – | COc1cccc(COc2ccc3oc(C)c(C(=O)NC4CCN(C(=O)OC(C)(C)C)CC4(F)F)c3c2)n1 (stereo not drawn) [cpd 091, tert-butyl 3,3-difluoro-4-(5-((6-methoxypyridin-2-yl)methoxy)-2-methylbenzofuran-3-carbox-amido)piperidine-1-carboxylate] | –
3 | 1000 to 20000 nM | – | Cc1oc2ccc(OCc3cccnc3Cl)cc2c1C(=O)NC1CCN(C(=O)OC(C)(C)C)CC1(F)F (stereo not drawn) [cpd 092, tert-butyl 4-(5-((2-chloropyridin-3-yl)methoxy)-2-methylbenzofuran-3-carboxamido)-3,3-difluoro-piperidine-1-carboxylate] | –
4 | 1000 to 20000 nM | – | Cc1oc2ccc(OCc3cnccc3Cl)cc2c1C(=O)NC1CCN(C(=O)OC(C)(C)C)CC1(F)F (stereo not drawn) [cpd 093, tert-butyl 4-(5-((4-chloropyridin-3-yl)methoxy)-2-methylbenzofuran-3-carboxamido)-3,3-difluoro-piperidine-1-carboxylate] | –
5 | 1000 to 20000 nM | – | Cc1oc2ccc(OCc3ccc4nccn4c3)cc2c1C(=O)NC1CCN(C(=O)OC(C)(C)C)CC1(F)F (stereo not drawn) [cpd 094, tert-butyl 3,3-difluoro-4-(5-(imidazo[1,2-a]pyridin-6-ylmethoxy)-2-methylbenzofuran-3-carbox-amido)piperidine-1-carboxylate] | –
6 | 1000 to 20000 nM | – | Cc1oc2ccc(OCc3cncc(C(F)(F)F)c3)cc2c1C(=O)NC1CCN(C(=O)OC(C)(C)C)CC1(F)F (stereo not drawn) [cpd 095, tert-butyl 3,3-difluoro-4-(2-methyl-5-((5-(trifluoromethyl)pyridin-3-yl)methoxy)benzofuran-3-carboxamido)piperidine-1-carboxylate] | –
7 | 1000 to 20000 nM | – | Cc1oc2ccc(OCc3ncccc3C(F)(F)F)cc2c1C(=O)NC1CCN(C(=O)OC(C)(C)C)CC1(F)F (stereo not drawn) [cpd 096, tert-butyl 3,3-difluoro-4-(2-methyl-5-((3-(trifluoromethyl)pyridin-2-yl)methoxy)benzofuran-3-carboxamido)piperidine-1-carboxylate] | –
8 | 1000 to 20000 nM | – | Cc1oc2ccc(OCc3ccccn3)cc2c1C(=O)NC1CCN(C(=O)OC(C)(C)C)CC1(F)F (stereo not drawn) [cpd 097, tert-butyl 3,3-difluoro-4-(2-methyl-5-(pyridin-2-ylmethoxy)benzofuran-3-carboxamido)piperidine-1-carboxylate] | –
9 | 1000 to 20000 nM | – | Cc1oc2ccc(OCc3cccnc3C(F)(F)F)cc2c1C(=O)NC1CCN(C(=O)OC(C)(C)C)CC1(F)F (stereo not drawn) [cpd 098, tert-butyl 3,3-difluoro-4-(2-methyl-5-((2-(trifluoromethyl)pyridin-3-yl)methoxy)benzofuran-3-carboxamido)piperidine-1-carboxylate] | –
10 | 1000 to 20000 nM | – | Cc1ccncc1COc1ccc2oc(C)c(C(=O)O)c2c1 [cpd 099, 2-methyl-5-((4-methylpyridin-3-yl)methoxy)benzofuran-3-carboxylic acid] | –
11 | 1000 to 20000 nM | – | COc1ncccc1COc1ccc2oc(C)c(C(=O)O)c2c1 [cpd 100, 5-((2-methoxypyridin-3-yl)methoxy)-2-methylbenzofuran-3-carboxylic acid] | –
12 | 1000 to 20000 nM | – | Cc1ncsc1COc1ccc2oc(C)c(C(=O)O)c2c1 [cpd 102, 2-methyl-5-((4-methylthiazol-5-yl)methoxy)benzofuran-3-carboxylic acid] | –
13 | 1000 to 20000 nM | – | Cc1oc2ccc(OCc3cccnc3C(F)(F)F)cc2c1C(=O)n1ccc(N)n1 [cpd 178, (3-amino-1H-pyrazol-1-yl)(2-methyl-5-((2-(trifluoromethyl)pyridin-3-yl)methoxy)benzofuran-3-yl)methanone] | –
14 | 1000 to 20000 nM | – | Cc1oc2ccc(OCc3cccnc3C(F)(F)F)cc2c1C(=O)n1cc(N)cn1 [cpd 181, (4-amino-1H-pyrazol-1-yl)(2-methyl-5-((2-(trifluoromethyl)pyridin-3-yl)methoxy)benzofuran-3-yl)methanone] | –
15 | 1000 to 20000 nM | – | Cc1ncsc1COc1cc(Cl)c2oc(C)c(C(=O)NC3(CO)CCOCC3)c2c1 [cpd 187, 7-chloro-N-(4-(hydroxymethyl)tetrahydro-2H-pyran-4-yl)-2-methyl-5-((4-methylthiazol-5-yl)-methoxy)benzofuran-3-carboxamide] | –
16 | 1000 to 20000 nM | – | Cc1oc2ccc(OCc3cccnc3C(F)(F)F)cc2c1C(=O)NCC1(N)COC1 [cpd 189, N-((3-aminooxetan-3-yl)methyl)-2-methyl-5-((2-(trifluoromethyl)pyridin-3-yl)methoxy)-benzofuran-3-carboxamide] | –
17 | 1000 to 20000 nM | – | Cc1ncsc1COc1ccc2oc(C)c(C(=O)NC3CC4(CNC4)C3)c2c1 [cpd 190, 2-methyl-5-((4-methylthiazol-5-yl)methoxy)-N-(2-azaspiro[3.3]heptan-6-yl)benzofuran-3-carboxamide] | –

Row | IC50 [1] | IC50 [2] | SMILES | also measured
18 | 1000 to 20000 nM | – | Cc1ncsc1COc1ccc2oc(C(F)F)c(C(=O)NC3(CO)CCOCC3)c2c1 [cpd 197, 2-(difluoromethyl)-N-(4-(hydroxymethyl)tetrahydro-2H-pyran-4-yl)-5-((4-methylthiazol-5-yl)-methoxy)benzofuran-3-carboxamide] | –
19 | – | – | Cc1ncc(COc2ccc3oc(C)c(C(=O)N[C@@H](CO)C(=O)N4CCC(F)(F)C4)c3c2)s1 [cpd 277, (S)-N-(1-(3,3-difluoropyrrolidin-1-yl)-3-hydroxy-1-oxopropan-2-yl)-2-methyl-5-((2-methylthiazol-5-yl)methoxy)benzofuran-3-carboxamide] | IC50 (PS (50 μM) stimulated Ca2+ influx, HEK293, cpds 200-299): 1000 to 20000 nM
20 | – | 1000 to 20000 nM | Cc1ncc(COc2ccc3oc(C)c(C(=O)N[C@@H](CO)C(=O)N4CCCC4)c3c2)s1 [cpd 307, (S)-N-(3-hydroxy-1-oxo-1-(pyrrolidin-1-yl)propan-2-yl)-2-methyl-5-((2-methylthiazol-5-yl)methoxy)benzofuran-3-carboxamide] | –
21 | – | 1000 to 20000 nM | Cc1ncsc1COc1ccc2oc(C(F)F)c(C(=O)NC3(CO)CC3)c2c1 [cpd 308, 2-(difluoromethyl)-N-(1-(hydroxymethyl)cyclopropyl)-5-((4-methylthiazol-5-yl)methoxy)benzofuran-3-carboxamide] | –
22 | – | 1000 to 20000 nM | Cc1ncsc1COc1ccc2oc(C(F)F)c(C(=O)NC3(CO)COC3)c2c1 [cpd 309, 2-(difluoromethyl)-N-(3-(hydroxymethyl)oxetan-3-yl)-5-((4-methylthiazol-5-yl)methoxy)benzofuran-3-carboxamide] | –
23 | – | 1000 to 20000 nM | COc1ncccc1COc1ccc2oc(C(F)F)c(C(=O)NC3(CO)CCOCC3)c2c1 [cpd 312, 2-(difluoromethyl)-N-(4-(hydroxymethyl)tetrahydro-2H-pyran-4-yl)-5-((2-methoxypyridin-3-yl)methoxy)benzofuran-3-carboxamide] | –
24 | – | 1000 to 20000 nM | Cc1ncsc1COc1ccc2oc(C)c(C(=O)NC3(CO)CC3)c2c1F [cpd 327, 4-fluoro-N-(1-(hydroxymethyl)cyclopropyl)-2-methyl-5-((4-methylthiazol-5-yl)methoxy)benzofuran-3-carboxamide] | –
25 | – | 1000 to 20000 nM | Cc1oc2ccc(OCc3nccn3CC(F)F)cc2c1C(=O)NC1(CO)CCOCC1 [cpd 331, 5-((1-(2,2-difluoroethyl)-1H-imidazol-2-yl)methoxy)-N-(4-(hydroxymethyl)tetrahydro-2H-pyran-4-yl)-2-methylbenzofuran-3-carboxamide] | –
26 | – | 1000 to 20000 nM | Cc1oc2ccc(OCc3ncccc3C(F)F)cc2c1C(=O)NC1(CO)CCOCC1 [cpd 351, 5-((3-(difluoromethyl)pyridin-2-yl)methoxy)-N-(4-(hydroxymethyl)tetmhydro-2H-pyran-4-yl)-2-methylbenzofuran-3-carboxamide] | –
27 | – | 1000 to 20000 nM | Cc1ncsc1COc1cc(F)c2oc(C)c(C(=O)NC3(CO)CC3)c2c1 [cpd 366, 7-fluoro-N-(1-(hydroxymethyl)cyclopropyl)-2-methyl-5-((4-methylthiazol-5-yl)methoxy)benzofuran-3-carboxamide] | –
28 | – | 1000 to 20000 nM | Cc1oc2c(F)cc(OCc3cccnc3O)cc2c1C(=O)NC1(CO)CCOCC1 [cpd 368, 7-fluoro-N-(4-(hydroxymethyl)tetrahydro-2H-pyran-4-yl)-5-((2-hydroxypyridin-3-yl)methoxy)-2-methylbenzofuran-3-carboxamide] | –
29 | – | 1000 to 20000 nM | COc1ncccc1COc1cc(F)c2oc(C)c(C(=O)NC3(CO)CCOCC3)c2c1 [cpd 369, 7-fluoro-N-(4-(hydroxymethyl)tetrahydro-2H-pyran-4-yl)-5-((2-methoxypyridin-3-yl)methoxy)-2-methylbenzofuran-3-carboxamide] | –
30 | – | ≤ 1000 nM | Cc1oc2ccc(OCc3ccnn3CC(F)F)cc2c1C(=O)N[C@H](C(N)=O)[C@@H](C)O [cpd 381, N-((2S,3R)-1-amino-3-hydroxy-1-oxobutan-2-yl)-5-((1-(2,2-difluoroethyl)-1H-pyrazol-5-yl)methoxy)-2-methylbenzofuran-3-carboxamide] | –
31 | – | – | Cc1oc2ccc(OCc3cccn(C)c3=O)cc2c1C(=O)NC1CCN(CCO)C1=O (stereo not drawn) [cpd 405, N-(1-(2-hydroxyethyl)-2-oxopyrrolidin-3-yl)-2-methyl-5-((1-methyl-2-oxo-1,2-dihydropyridin-3-yl)methoxy)benzofuran-3-carboxamide] | IC50 [3]: ≥ 20000 nM
32 | – | – | Cc1oc2ccc(OCc3cccnc3O)cc2c1C(=O)NC1(C(N)=O)CC1 [cpd 479, N-(1-carbamoylcyclopropyl)-5-((2-hydroxypyridin-3-yl)methoxy)-2-methylbenzofuran-3-carboxamide] | IC50 [3]: 1000 to 20000 nM
33 | – | – | Cc1ncsc1COc1ccc2oc(C)c(C(=O)NC(C#N)C(N)=O)c2c1 (stereo not drawn) [cpd 502, N-(2-amino-1-cyano-2-oxoethyl)-2-methyl-5-((4-methylthiazol-5-yl)methoxy)benzofuran-3-carboxamide] | IC50 (PS (50 μM) stimulated, cpds. 500-599): ≤ 1000 nM
